Patent US12241902B2, “Probes for detection of copper” (The Regents of the University of California, priority 2019, dated 2025)

Columns and labels:
[1] = Metal ion selectivity of the ratiometric fluorescence change
Experimental: (§1) (A) Changes in corrected emission spectra of FCP-1 (5 μM) in aqueous buffer solution. […] (B) Corrected emission spectra of FCP-1 measured at various concentrations. […] (D) Changes in F526/F576 ratio of FCP-1 (5 μM) towards various biologically relevant metal ions, as well as cobalt(II)-containing vitamin B12. Black bars represent the ratiometric emission response observed upon addition of competing metal ions (1 mM for Na^+, K^+, Mg^2+ and Ca^2+, and 10 μM for all the other d-block metal ions as well vitamin B12) after 15 min. Red bars represent the ratiometric emission response upon subsequent addition of 10 μM of Cu(I) after 15 min. (E) Emission spectra and (F) F526/F576 emission ratio of FCP-1 (5 μM) with addition of Cu(II) (10 μM), Cu(II) (10 μM)+GSH (2 mM), or Cu(I) (10 μM)+GSH (2 mM) after 15 min. All spectra were acquired in aqueous buffer (PBS with 2 mM GSH and 40 vol % PEG-400) with λex=458 nm.
(§2) UV-vis absorption and emission measurements. FCP-1 stock solution in DMSO (5 mM) was prepared, aliquoted and stored at […]. For each spectroscopic measurement, a fresh aliquot was diluted to 500 μM by DMSO and further diluted with PBS containing 2 mM GSH/PEG-400 mixture (3:2, v/v) to prepare the sensing solution with 5 μM of FCP-1. The sensing solution was pre-incubated in a water bath at 37° C., and then [Cu(CH3CN)](PF6) in MeCN or other metal ions in H2O was added. The solution mixture was kept at 37° C. and taken out for UV-vis absorption or emission spectroscopic measurements in quartz cuvette at predetermined time intervals. Emission spectra were corrected using coumarin 153 as secondary emission standard (4). Photoluminescence quantum yield (PLQY) was determined using fluorescein in 0.1 M NaOH solution (0.95; λex=496 nm). FRET efficiency from the fluorescein moiety to rhodamine moiety of FCP-1 was estimated by [1−(PLQY of FCP-1/PLQY of FL-TPA)].
This oxidation state-specificity is important for the applications of FCP-1 in imaging dynamic changes in intracellular labile Cu(I) pools under redox stress and oncogenic transformation.

[2] = Ratiometric fluorescence response (F526/F576) to Cu(I) in aqueous buffer
Experimental: as §2
The ratiometric fluorescence change of FCP-1 at 526 and 576 nm (F526/F576) was rapid and reached saturation after ca. 30 min in the presence of a two-fold excess of Cu(I) (10 μM).

[3] = system: labile Cu(I) pools in HEK 293T cells; assay: Ratiometric confocal fluorescence imaging of labile Cu(I) in HEK 293T cells; type: cell-based, Human
Experimental: (A) Confocal fluorescence microscopy images of HEK 293T cells pretreated with solvent vehicle control or varying concentrations of CuCl2 in complete medium for 18 h. The cells were then washed with PBS, incubated with FCP-1 (5 μM) in DPBS for 45 min and then imaged. (B) Average cellular ratiometric emission ratios, represented by Fgreen/Forange, as determined from imaging experiments in (A) performed in triplicate. (C) Confocal fluorescence microscopy images of HEK 293T cells pretreated with solvent vehicle control or BCS (100 μM) in complete medium for 18 h. The cells were then washed with PBS, incubated with FCP-1 (5 μM) in DPBS for 45 min and then imaged. (D) Average cellular ratiometric emission ratios of FCP-1, Fgreen/Forange, as determined from experiments in (C) performed in triplicate. […] (E) ICP-MS measurement to determine total cellular ^63Cu levels in HEK293T cells under copper supplementation and depletion relative to the control (with normalization of different cell numbers by total cellular ^31P level). Error bars denote standard derivation (SD; n=3). *p<0.05, **p<0.01, ***p<0.001, ****p<0.0001 and *****p<0.00001.
Cell culture. Following cell cultures were grown: Human embryonic kidney (HEK 293T) cells were maintained in Dulbecco's Modified Eagle Medium (DMEM) supplemented with 10 vol % fetal bovine serum (FBS), 1 vol % GlutaMax (Gibco) and 1 vol % non-essential amino acids (NEAA, Gibco). Ctrl1^+/+ and Ctr1^−/− MEF cells were maintained in DMEM with 10 vol % FBS, 1 vol % non-essential amino acids, 1 vol % sodium pyruvate and 0.1 vol % 2-mercaptoethanol or DMEM supplemented with 10 vol % FBS and 1× Penicillin-Streptomycin. Human cervical epithelial carcinoma (HeLa) was maintained in DMEM medium supplemented with 1 vol % GlutaMAX and 10 vol % FBS. […]
Confocal fluorescence microscopy imaging. For confocal fluorescence imaging experiments of HEK293T, MEF Ctr1^+/+ and Ctr1^−/− and HeLa cells, the cells were plated on 8-well Lab Tek borosilicate chambered coverglass slides (Nunc), and allowed to grow to ca. 60% confluency before performing the cell imaging experiments. […] For quantification, a threshold value was set as background and the average intensity of the whole image was measured by ImageJ. […]
Given the metal and oxidation state-selective and sensitive response of FCP-1 to Cu(I), this probe was examined for ratiometric fluorescence imaging of labile Cu(I) pools in living cells. […] The observed increases and decreases in labile Cu(I) levels upon copper supplementation (CuCl2) and copper depletion (BCS) treatments, respectively, as measured by FCP-1 imaging were supported by complementary ICP-MS measurements of total copper levels showing expected increases and decreases in the total copper pool (FIG. 9, panel C).

[4] = Oxidation state specificity of the ratiometric response
Experimental: as §1
UV-vis absorption and emission measurements. FCP-1 stock solution in DMSO (5 mM) was prepared, aliquoted and stored at […]. For each spectroscopic measurement, a fresh aliquot was diluted to 500 μM by DMSO and further diluted with PBS containing 2 mM GSH/PEG-400 mixture (3:2, v/v) to prepare the sensing solution with 5 μM of FCP-1. […] Photoluminescence quantum yield (PLQY) was determined using fluorescein in 0.1 M NaOH solution (0.95; λex=496 nm). […]

[5] = FCP-1 5 μM, Cu(I) 10 μM, over time, λex 458 nm

CC[N+](CC)=c1ccc2c(-c3ccccc3C(=O)O)c3ccc(N4CCN(Cc5cccc(CN(Cc6ccccn6)Cc6cccc(COc7ccc8c(-c9ccccc9C(=O)OC)c9ccc(=O)cc-9oc8c7)n6)n5)CC4)cc3oc-2c1 [FCP-1]
change in ratiometric signal with cobalamin (vitamin B12) ([1]; 10 μM cobalamin): no significant changes in ratiometric signal | selectivity of ratiometric fluorescence change ([1]; 1 mM Na+, K+, Mg2+, Ca2+, 10 μM d-block metal ions, 15 min): selective toward Cu(I) over other biologically relevant metal ions | change of fluorescence with free Co(II) ([1]; Co(II) 10 μM): altered FCP-1 fluorescence modestly | detection of Cu(I) in competitive experiments ([1]; solutions containing other biologically relevant metal ions, then 10 μM Cu(I)): ability of FCP-1 to detect Cu(I) | F526/F576 ratio with Cu(I) at different GSH concentrations ([2]; FCP-1 5 μM, Cu(I) 10 μM, 15 min, PBS with 40 vol % PEG-400): higher F526/F576 ratios at lower GSH concentrations | fluorescein emission at 526 nm upon addition of Cu(I) [2, 5]: increase in fluorescein emission at 526 nm | rhodamine fluorescence at 576 nm upon addition of Cu(I) [2, 5]: drop in rhodamine fluorescence at 576 nm | total fluorescence at higher probe concentrations ([2]; aqueous buffer, λex 458 nm (FIG. 8)): less fluorescent at higher concentrations | time to saturation of ratiometric fluorescence change F526/F576 ([2]; two-fold excess of Cu(I) (10 μM)): ca. 30 min | Fgreen/Forange ratio in copper-deficient cells compared to control ([3]; BCS 100 μM pretreatment, FCP-1 5 μM): statistically significant decrease | Fgreen/Forange ratio in copper-supplemented cells over vehicle control ([3]; CuCl2 25-300 μM pretreatment, FCP-1 5 μM 45 min): statistically significant, dose-dependent increase | cell viability by nuclear staining ([3]; FCP-1 5 μM, DRAQ-5 (FIGS. 10-11)): remained viable | emission spectra and F526/F576 ratio with Cu(II) and excess glutathione ([4]; Cu(II) 10 μM + GSH 2 mM, compared with Cu(I) 10 μM + GSH 2 mM): identical to that obtained by treating FCP-1 with Cu(I) and excess glutathione | ratiometric response to Cu(II) ([4]; Cu(II) 10 μM, 15 min): does not respond ratiometrically
